Read-outs that look alike come from different tables or passages of the source.
System: Escherichia coli (ATCC25922) or Staphylococcus aureus (ATCC25923)
Assay: Antibacterial MIC, microdilution method in Mueller-Hinton medium
Assay type: cell-based
Details: Escherichia coli, 18 h, read-out: Potency (MIC)
How it was run: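 Two-fold serial dilutions from 64 to 0.5 μg/ml, in duplicate, by broth microdilution in Mueller-Hinton medium (NCCLS M7-A5). MIC taken as the lowest concentration preventing visible growth after 18 h at 35° C.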

[1] = MIC in E. coli or S. aureus, two-fold serial dilutions 64 to 0.5 μg/ml in duplicate, 18 hours of incubation at 35° C.

## Cc1ccc(S(=O)(=O)N(Cc2ccccc2)c2ccc(Nc3nc(N4C[C@H](N)C[C@H](N)C4)nc(N4C[C@H](CN)C[C@H](CN)C4)n3)c(O)c2)cc1 [N-Benzyl-N-{4-[4-((3S,5R)-3,5-bis-(aminomethyl)-piperidin-1-yl)-6-((3R,5S)-3,5-diamino-piperidin-1-yl)-[1,3,5]triazin-2-ylamino]-3-hydroxy-phenyl}-4-methyl-benzenesulfonamide]
  MIC: < 64 µg/mL

## N[C@@H]1C[C@H](N)CN(c2nc(Nc3ccc(C(=O)CC(=O)Nc4ccccc4)cc3)nc(N3C[C@H](N)C[C@H](N)C3)n2)C1 [N-[4-(2-phenylcarbamoyl-acetyl)-phenyl]-4,6-Bis-((3R,5S)-3,5-diamino-piperidin-1-yl)-[1,3,5]triazine-2-amine]
  MIC: < 16 µg/mL

## CCN(CC)CCNC(=O)c1ccc(Nc2nc(N3C[C@H](N)C[C@H](N)C3)nc(N3C[C@H](N)C[C@H](N)C3)n2)cc1 [N-[4-(2-diethylamino-ethylcarbamoyl)-phenyl]-4,6-Bis-((3R,5S)-3,5-diamino-piperidin-1-yl)-[1,3,5]triazine-2-amine]
  MIC: < 64 µg/mL

## CCCCCC(=O)Nc1ccc(Nc2nc(N3C[C@H](N)C[C@H](N)C3)nc(N3C[C@H](N)C[C@H](N)C3)n2)cc1O [N-(4-hexanoylamino-3-hydroxy-phenyl)-4,6-Bis-((3R,5S)-3,5-diamino-piperidin-1-yl)-[1,3,5]triazine-2-amine]
  MIC: < 16 µg/mL

## NC[C@@H]1C[C@H](CN)CN(c2nc(Nc3ccc(S(=O)(=O)Nc4ccc5cn[nH]c5c4)cc3)nc(N3C[C@H](N)C[C@H](N)C3)n2)C1 [4-[4-((3R,5S)-3,5-Bis-(aminomethyl)-piperidin-1-yl)-6-((3R,5S)-3,5-diamino-piperidin-1-yl)-[1,3,5]triazin-2-ylamino]-N-(1H-indazol-6-yl)-benzenesulfonamide]
  MIC: > 64 µg/mL

## N[C@@H]1C[C@H](N)CN(c2ncnc(Nc3ccc(NC(=O)c4ccc5ccccc5c4O)cc3)n2)C1 [1-Hydroxy-naphthalene-2-carboxylicacid {4-[4-((3S,5R)-3,5-diamino-piperidin-1-yl)-[1,3,5]triazin-2-ylamino]-phenyl}-amide]
  MIC: < 16 µg/mL

## CC(=O)c1ccc(Nc2nc(N3C[C@H](N)C[C@H](N)C3)nc(N3C[C@@H](N)[C@@H](N)C3)n2)cc1 [1-{4-[4-((3R,5S)-3,5-Diamino-piperidin-1-yl)-6-((3R,4S)-3,4-diamino-pyrrolidin-1-yl)-[1,3,5]triazin-2-ylamino]-phenyl}-ethanone]
  MIC: > 64 µg/mL

## N[C@@H]1C[C@H](N)CN(c2nc(Nc3ccc(NC(=O)c4ccc(Cl)cc4)c(O)c3)nc(N3CCNCC3)n2)C1 [4-Chloro-N-{4-[4-((3S,5R)-3,5-diamino-piperidin-1-yl)-6-piperazin-1-yl-[1,3,5]triazin-2-ylamino]-2-hydroxy-phenyl}-benzamide]
  MIC: < 16 µg/mL

## N[C@@H]1C[C@H](N)CN(c2nc(Nc3ccc4ccc5cccc6ccc3c4c56)nc(N3C[C@H](N)C[C@H](N)C3)n2)C1 [N-pyren-1-yl-4,6-Bis-((3R,5S)-3,5-diamino-piperidin-1-yl)-[1,3,5]triazine-2-amine]
[1]
  MIC: < 16 µg/mL

## N[C@@H]1C[C@H](N)CN(c2nc(Nc3ccc(C(=O)Nc4ccc(SC(F)(F)F)cc4)c(O)c3)nc(N3C[C@H](N)C[C@H](N)C3)n2)C1 [N-[3-hydroxy-4-(4-trifluoromethylsulfanyl-phenylcarbamoyl)-phenyl]-4,6-Bis-((3R,5S)-3,5-diamino-piperidin-1-yl)-[1,3,5]triazine-2-amine]
  MIC: < 64 µg/mL

## N[C@@H]1C[C@H](N)CN(c2nc(Nc3ccc(C(=O)CC(=O)Nc4ccccc4F)cc3)nc(N3C[C@H](N)C[C@H](N)C3)n2)C1 [N-{4-[2-(2-fluoro-phenylcarbamoyl)-acetyl]-phenyl}-4,6-Bis-((3R,5S)-3,5-diamino-piperidin-1-yl)-[1,3,5]triazine-2-amine]
  MIC: < 64 µg/mL

## N[C@@H]1C[C@H](N)CN(c2cc(Nc3ccc([N+](=O)[O-])cc3)cc(N3C[C@H](N)C[C@H](N)C3)c2)C1 [(3,5-Bis-((3R,5S)-3,5-diamino-piperidin-1-yl)-phenyl)-(4-nitro-phenyl)-amine]
  MIC: > 64 µg/mL

## N[C@@H]1C[C@H](N)CN(c2nc(NNc3cc(Cl)cc(Cl)c3)nc(N3C[C@H](N)C[C@H](N)C3)n2)C1 [N-(4,6-Bis-((3R,5S)-3,5-diamino-piperidin-1-yl)-[1,3,5]triazin-2-yl)-N′-(3,5-Dichloro-phenyl)-hydrazine]
  MIC: < 64 µg/mL

## N[C@@H]1C[C@H](N)CN(c2nc(Nc3cccc(NC(=O)c4cccc(O)c4O)c3)nc(N3C[C@H](N)C[C@H](N)C3)n2)C1 [N-[3-(2,3-dihydroxy-benzoylamino)-phenyl]-4,6-Bis-((3R,5S)-3,5-diamino-piperidin-1-yl)-[1,3,5]triazine-2-amine]
  MIC: < 16 µg/mL

## N[C@@H]1C[C@H](N)CN(c2nc(Nc3ccc(NC(=O)c4ccccc4Cl)c(O)c3)nc(N3C[C@H](N)C[C@H](N)C3)n2)C1 [N-[4-(2-chloro-benzoylamino)-3-hydroxy-phenyl]-4,6-Bis-((3R,5S)-3,5-diamino-piperidin-1-yl)-[1,3,5]triazine-2-amine]
  MIC: < 64 µg/mL

## CC(=O)c1ccc(Nc2nc(N3C[C@H](N)C[C@H](N)C3)nc(N3C[C@H](O)C[C@H]3CN)n2)cc1 [1-{4-[4-((2S,4R)-2-Aminomethyl-4-hydroxy-pyrrolidin-1-yl)-6-((3R,5S)-3,5-diamino-piperidin-1-yl)-[1,3,5]triazin-2-ylamino]-phenyl}-ethanone]
  MIC: > 64 µg/mL

## N[C@@H]1C[C@H](N)CN(c2nc(Nc3ccc(C(=O)Nc4cccc(Cl)c4)c(O)c3)nc(N3C[C@H](N)C[C@H](N)C3)n2)C1 [N-[4-(3-chloro-phenylcarbamoyl)-3-hydroxy-phenyl]-4,6-Bis-((3R,5S)-3,5-diamino-piperidin-1-yl)-[1,3,5]triazine-2-amine]
  MIC: < 16 µg/mL

## Cl.N[C@@H]1C[C@H](N)CN(c2nc(N3C[C@H](N)C[C@H](N)C3)nc(N3CCc4cc(Br)ccc43)n2)C1 [4-[4-(4,6-Bis-((3R,5S)-3,5-diamino-piperidin-1-yl)-[1,3,5]triazin-2-yl)-piperiazin-1-yl]-phenol]
[1]
  MIC: < 64 µg/mL

## Cl.N[C@@H]1C[C@H](N)CN(c2nc(Nc3ccc(O)c4ccccc34)nc(N3C[C@H](N)C[C@H](N)C3)n2)C1 [N-(4-hydroxy-naphthalen-1-yl)-4,6-Bis-((3R,5S)-3,5-diamino-piperidin-1-yl)-[1,3,5]triazine-2-amine]
[1]
  MIC: < 16 µg/mL

## NCCN(CCN)c1nc(Nc2ccc(NC(=O)C(=O)c3c[nH]c4ccccc34)c(O)c2)nc(N2C[C@H](N)C[C@H](N)C2)n1 [N-{4-[4-[Bis-(2-amino-ethyl)-amino]-6-((3R,5S)-3,5-diamino-piperidin-1-yl)-[1,3,5]triazin-2-ylamino]-2-hydroxy-phenyl}-2-(1H-indol-3-yl)-2-oxo-acetamide]
  MIC: < 16 µg/mL

## N[C@@H]1C[C@H](N)CN(c2nc(Nc3ccc(NS(=O)(=O)c4cc(Cl)cc(Cl)c4)c(O)c3)nc(N3C[C@H](N)C[C@H](N)C3)n2)C1 [N-[4-(3,5-dichloro-benzenesulfonylamino)-3-hydroxy-phenyl]-4,6-Bis-((3R,5S)-3,5-diamino-piperidin-1-yl)-[1,3,5]triazine-2-amine]
  MIC: < 64 µg/mL

## COc1cnc(NS(=O)(=O)c2ccc(Nc3nc(N4C[C@H](N)C[C@H](N)C4)nc(N4C[C@H](N)C[C@H](N)C4)n3)cc2)nc1 [N-{4-(5-methoxy-pyrimidin-2-ylsulfamoyl)-phenyl]-4,6-Bis-((3R,5S)-3,5-diamino-piperidin-1-yl)-[1,3,5]triazine-2-amine]
[1]
  MIC: > 64 µg/mL

## Cl.O=C(Nc1ccc(Nc2nc(N3CCCCC3)nc(N3CCCCC3)n2)cc1O)c1c(Cl)cccc1Cl [N-[4-(2,6-dichloro-benzoylamino)-3-hydroxy-phenyl]-4,6-Bis-((3R,5S)-3,5-diamine-piperidin-1-yl)-[1,3,5]triazine-2-amine]
[1]
  MIC: < 64 µg/mL

## N[C@@H]1C[C@H](N)CN(c2nc(Nc3ccc(NC(=O)c4ccc(O)cc4O)cc3)nc(N3C[C@H](N)C[C@H](N)C3)n2)C1 [N-[4-(2,4-dihydroxy-benzoylamino)-phenyl]-4,6-Bis-((3R,5S)-3,5-diamino-piperidin-1-yl)-[1,3,5]triazine-2-amine]
  MIC: < 16 µg/mL

## CC(=O)c1ccc(Nc2nc(N3C[C@H](N)C[C@H](N)C3)nc(N3CC[C@H](O)[C@@H]3CN)n2)cc1 [1-{4-[4-((2S,3S)-2-Aminomethyl-3-hydroxy-pyrrolidin-1-yl)-6-((3R,5S)-3,5-diamino-piperidin-1-yl)-[1,3,5]triazin-2-ylamino]-phenyl}-ethanone]
  MIC: > 64 µg/mL

## Cl.O=S(=O)(c1cc(Nc2nc(N3CCCCC3)nc(N3CCCCC3)n2)ccc1N1CCOCC1)N1CCOCC1 [N-[3-morpholine-4-sulfonyl)-4-morpholin-4-yl-phenyl]-4,6-Bis-((3R,5S)-3,5-diamino-piperidin-1-yl)-[1,3,5]triazine-2-amine]
[1]
  MIC: > 64 µg/mL

## N[C@@H]1C[C@H](N)CN(c2nc(Nc3ccc(C(=O)NCc4ccc5c(c4)OCO5)c(O)c3)nc(N3C[C@H](N)C[C@H](N)C3)n2)C1 [N-{4-[(benzo[1,3]dioxol-5-ylmethyl)-carbamoyl]-3-hydroxy-phenyl}-4,6-Bis-((3R,5S)-3,5-diamino-piperidin-1-yl)-[1,3,5]triazine-2-amine]
  MIC: < 64 µg/mL

## Cc1cc(=O)oc2cc(Nc3nc(N4C[C@H](N)C[C@H](N)C4)nc(N4C[C@H](CN)C[C@H](CN)C4)n3)ccc12 [7-[4-((3S,5R)-3,5-Bis-(aminomethyl)-piperidin-1-yl)-6-((3R,5S)-3,5-diamino-piperidin-1-yl)-[1,3,5]triazin-2-ylamino]-4-methyl-chromen-2-one]
  MIC: > 64 µg/mL

## Cl.N[C@@H]1C[C@H](N)CN(c2nc(Nc3ccccc3-n3cccc3)nc(N3C[C@H](N)C[C@H](N)C3)n2)C1 [N-(2-pyrrol-1-yl-phenyl)-4,6-Bis-((3R,5S)-3,5-diamino-piperidin-1-yl)-[1,3,5]triazine-2-amine]
[1]
  MIC: < 64 µg/mL

— patent US7223759B2, “Antibacterial 3,5-diaminopiperidine-substituted aromatic and heteroaromatic compounds” (Anadys Pharmaceuticals, Inc., priority 2003, dated 2007)
